Structures are written as SMILES.

Turning to `O=c1cc(-c2cc3ccccc3cc2O)oc2ccccc12`, the melting point came to 202 °C.
The result for `CC(=O)N[C@H]1CC[C@H](CCN2CCN(c3nccc4c3OCC4)CC2)CC1` reads 195 °C; that for `COC1(N)C=CC(C(=O)c2cnc(Nc3ccccc3)s2)=CC1` (centres undefined), 222 °C.
In the case of `CC(c1oc2ccccc2c(=O)c1-c1cccc(F)c1)n1nc(-c2cn[nH]c2)c2c(N)ncnc21` (centres undefined) it was 223 to 226 °C.
In the case of `COc1ccc2c(c1)C(=O)C(=Cc1cccc([N+](=O)[O-])c1)CC2` it was 175 to 176 °C.
Take `NS(=O)(=O)c1ccc(-c2cnn(CC(F)(F)F)c(=O)c2-c2ccc(Cl)c(F)c2)cc1`: the melting point lay within 180 to 183 °C.
In the case of `O=CN1CCC(c2nn(-c3ccc(C(F)(F)F)cc3)c3ccccc23)CC1` it was 109 to 111 °C; in that of `O=C(Oc1ccccc1)N1CCC2(CC1)SC(c1ccc(Cl)c(Cl)c1)c1ccccc12` (centres undefined), 200 to 202 °C; in that of `Cc1c(SCCCSCCn2c([N+](=O)[O-])cnc2C)ccnc1CNc1ncncc1Cl`, 119 to 121 °C.
In the case of `Cc1ccccc1Cc1n[nH]c2c1c(=O)n(-c1cccc(OC(F)(F)F)c1)c1ncccc21` it was 240 to 242 °C.
In the case of `CC(C)(C)OC(=O)NCCNC(=O)c1ncccc1N` it was 103 to 105 °C; in that of `CCOC(=NC(=O)c1ccc(Cl)c(Cl)c1)N1Cc2ccccc2-c2ccccc2C1`, 138 °C.
The compound `COc1cc(N)c(Cl)cc1C(=O)NC1CCN(CCNC(=O)C(CO)c2ccccc2)CC1OC` (centres undefined) showed a melting point of 114 °C.
The result for `CC(C#Cc1ccc(Br)cc1)N(O)C(N)=O` (centres undefined) reads 155 to 157 °C; that for `CCCC1=C(C(=O)OCC)C(c2cccc(Cl)c2Cl)c2c[nH]nc2N1` (centres undefined), 220 °C; that for `O=C1OC(=O)c2c1c1c3ccccc3[nH]c1c1c2c2cccnc2n1C1OC(CO)C(O)C(O)C1O` (centres undefined), greater than 300 °C.
In the case of `COC(=O)C=C1CC(NC(=O)OC(C)(C)C)C1` (centres undefined) it was 79 to 82 °C; in that of `O=C(CCl)Nc1nc(Cl)c(-c2ccccc2)s1`, 215 to 216 °C.
As for `CCOC(=O)CS(=O)CCSc1cc(C(C)(C)C)c(O)c(C(C)(C)C)c1` (centres undefined), the melting point is 110 °C.
In the case of `O=c1oc(OCCBr)c(Cl)c2ccc(NC(=S)Nc3ccccc3)cc12` it was 157 to 158 °C; in that of `COc1cc(OCCO)c([N+](=O)[O-])cc1[N+](=O)[O-]`, 137 to 140 °C; in that of `CCOC(=O)N1CCC(n2cnc(-c3ccc(F)cc3)c2-c2ccnc(NC)n2)CC1`, 205 to 206 °C.
Take `Nc1ccc(Cl)nc1I`: the melting point came to 148 °C.
In the case of `COC(=O)C1=C(C#N)NC(C)=C(C(=O)OC(C)C)C1c1cccc([N+](=O)[O-])c1` (centres undefined) it was 120 to 122 °C; in that of `CCOC(CBr)(OCC)c1ccc(OC)cc1`, 55 to 56 °C.
In the case of `N#Cc1ccc(N2CCC(=O)CC2)nc1` it was 171 to 173 °C; in that of `O=C1N[C@H](/C=C/c2ccccc2)[C@@H]1N1C(=O)c2ccccc2C1=O` (relative stereo), 168 to 170 °C; in that of `COCn1ccnc1C(O)(c1ccc(Cl)cc1)c1ccc(C(C)(C)C)cc1` (centres undefined), 162 to 163 °C.
For the compound `CC(=O)Nc1ccc(C(=O)Nc2c(C)cccc2C)cc1`, the melting point lay within 293 to 295 °C.
In the case of `FC(F)(F)Oc1ccc(-c2coc3ccc(-c4nnc(N5CCNCC5)o4)cc23)cc1` it was 138 to 140 °C.
In the case of `CCc1noc(C)c1-c1c(C(O)CN(C)C)c2ccccc2n1C` (centres undefined) it was 119 to 121 °C; in that of `COC1=CC2=CCC3C4CC(C)C(=O)C4(C)CCC3C2(C)CC1` (centres undefined), 149 to 167 °C; in that of `CCOC(=O)c1cnc2cc3c(cc2c1Cl)OCO3`, 109 to 110 °C.
In the case of `O=C(O)CCCCNC(=O)c1ccccc1NC(=O)c1ccccc1O` it was 168 to 170 °C; in that of `Cn1ccc(=O)c(OCc2ccccc2)c1C(=O)c1cccnc1`, 210 to 216 °C.
As for `CC(C)c1n[nH]c2c(NCc3ccc(O)cc3)ncnc12`, the melting point fell in the range of 234 to 236 °C.
In the case of `Nc1ccc(-c2ccc3nnn(Cc4ccc5ncccc5c4)c3n2)cc1` it was 190 to 193 °C; in that of `Cc1oc(-c2ccccc2)nc1COc1ccc(C(=O)c2ccccc2OCC(=O)O)cc1`, 174 to 175 °C.
The result for `N#Cc1cnc2cc3ccccc3cc2c1Nc1ccc(Oc2ccccc2)cc1` reads 250 to 251 °C; that for `CC(=O)N(C)c1csc(Br)n1`, 84 °C; that for `O=C(O)C1Cc2c(c(Cl)cc3c(-c4ccccc4F)noc23)O1` (centres undefined), 199 to 200 °C.
The result for `COc1cc(C(C)C)c2c(c1)S(=O)(=O)N(COC(=O)c1c(C)nn(-c3ccccc3)c1C)C2=O` reads 167 to 169 °C.
As for `COc1ccc(S(=O)(=O)N2c3ccccc3-c3ccccc3C2c2ccccc2)cc1` (centres undefined), the melting point is 145 to 147 °C.
The result for `CCCn1cnc(COc2nn3c(-c4ccccc4)nnc3cc2-c2ccccc2)n1` reads 212 to 214 °C; that for `CNc1nc(SCc2ccc(OC)cc2)nc(N2CCOCC2)c1N`, 79.5 to 84 °C.
The result for `COC(=O)C1SC=CC1Sc1ccccc1` (centres undefined) reads 43 to 45 °C; that for `Cc1c(CC#N)cc(C(C)(C)C)c(O)c1C`, 126 to 128 °C; that for `NS(=O)(=O)c1cncc([N+](=O)[O-])c1`, 168 °C.
The result for `CCCCc1nnc(-c2ccncc2)n1Cc1ccc(N)cc1` reads 63.5 to 64.5 °C; that for `Cn1ccc(-c2[nH]nc3c2C(=O)c2c(NC(N)=O)cccc2-3)c1`, greater than 300 °C; that for `COC(=O)c1ccc(Cn2cnc3ccccc32)cc1`, 94 to 95 °C.
Turning to `COCC(=O)N[C@H]1CC[C@H](CCN2CCC(c3cccc4c3CCO4)CC2)CC1`, the melting point was determined as 156 °C.
In the case of `C1=NCC2Cc3ccccc3Cc3cccc1c32` (centres undefined) it was 91 to 93 °C.
The result for `C=CCc1c(Cl)nc(NC=O)nc1Cl` reads 85 to 86 °C; that for `CC(C)C(NC(=O)c1ccc(C(=O)NCC(=O)O)cc1)C(=O)N1CCCC1C(=O)NC(C(=O)C(F)(F)F)C(C)C` (mixture of isomers), 99 to 103 °C.
In the case of `O=C(c1ccccc1)c1nc2cnc3ccc(F)cc3c2[nH]1` it was 255 to 256 °C; in that of `COc1ccc(CC(C)=O)cc1S(=O)(=O)N1CCSCC1`, 118 to 122 °C; in that of `CC(C)C(=O)N[C@@H]1CCc2c(c3cc(C#N)ccc3n2Cc2cccc(F)c2)C1`, 223 to 225 °C.
Turning to `O=C1c2ccccc2C(=O)N1CCN1CCCC1c1cccc(O)c1` (centres undefined), the melting point fell in the range of 172 to 175 °C.
The result for `CC(C)c1ccccc1Sc1c(O)cc(-c2ccc(-c3cccnc3)cc2)oc1=O` reads 145 to 147 °C.
In the case of `CC(=O)CN1C(=O)C(NC(=O)Nc2cccc(-c3nnn[nH]3)c2)N=C(c2ccccc2F)c2cccc(C)c21` (centres undefined) it was 174 to 190 °C.
The result for `ON=C(Cn1ccnc1)c1ccc(Cl)cc1` reads 185 to 186 °C; that for `CC(Sc1nc2ccccc2s1)C(N)=O` (centres undefined), 144 to 145 °C; that for `O=C(O)CCC(=O)c1ccc(-n2cnc3c2CCCC3)cc1`, 234 to 235 °C.
Regarding `Cn1cc(C2=C(c3cccc4ccccc34)C(=O)NC2=O)c2ccccc21`, the melting point was 258 to 260 °C.
For the compound `COc1ccc(F)c(CC2CCN([C@H]3CC[C@H](c4ccc5c(c4)OCO5)CC3)CC2)c1`, the melting point was 89 to 91 °C.
Turning to `CCOC(=O)c1ccc(F)c(-c2cccc3cc(CBr)sc23)c1`, the melting point was in the range of 143 to 144 °C.
As for `Cc1ccc(C)c2cc3ccccc3cc12`, the melting point was 70 to 72 °C.
The result for `C[C@H]1C[C@@](O)(c2cccc(S(=O)(=O)c3ccc4c(c3F)CCC(=O)N4C)c2)CCO1` reads 149 to 151 °C; that for `O=C(SCC(=O)N1c2ccccc2CCC1C(=O)O)c1ccccc1` (centres undefined), 164 to 168 °C.
In turn, `COC(=O)c1ccc2c(=O)n(Cc3ccc(OC)cc3)c(=O)[nH]c2c1` yielded a melting point of 254 to 256 °C.
The compound `Cc1ccccc1C1SCCCN1C(=S)Nc1cccc(Cl)c1` (centres undefined) displayed a melting point of 134 to 136 °C.
In the case of `CC1=CCC(=C2C(=O)C3(CS(=O)(=O)O)CCC2C3(C)C)C=C1` (centres undefined) it was 220 °C; in that of `CCC(=O)OC(C)(CC)c1nc2c(C(F)(F)F)cccc2c(O)c1C(=O)Nc1ccccn1` (centres undefined), 192 °C.
The result for `CC(C)(C)c1cc(CCC(=O)NCCNc2c(Cl)nc(Cl)c(Cl)c2C#N)cc(C(C)(C)C)c1O` reads 150 to 160 °C; that for `C/C=C/c1ccc2nc(Cl)c(S(N)(=O)=O)n2n1`, 225 to 229 °C.
In the case of `CC(C)c1ccc2ncn(/C=C/C(=O)NCCNCc3cccnc3)c(=O)c2c1` it was 121 to 124 °C; in that of `O=c1[nH]c2cc([N+](=O)[O-])ccc2cc1P(=O)(O)O`, greater than 300 °C.
In turn, `COc1ccc(Cn2cc3nc(Cl)nc(-c4c(F)cccc4OC)c3n2)cc1` came in with a melting point of 180 to 181 °C.
The result for `Cc1oc(-c2ccc(Cl)cc2)cc1C(=O)Nc1cc(Cl)ccc1-c1noc(=O)[nH]1` reads 248 to 251 °C.
With `O=[N+]([O-])c1cccc2c1OCCO2`, the melting point was 55 to 59 °C.
The result for `COc1ccc(N2C(=O)C3=C(SCCO3)C2=O)nn1` reads 157 °C.
The result for `COc1ccc2cnoc2c1Cl` reads 115 to 118 °C; that for `O=C(CN(Cc1ccccc1)c1c(C(=O)O)[nH]c2cc(Cl)cc(Cl)c12)c1ccccc1`, 266 to 267 °C; that for `C/C(=C\C=C\C#N)c1ccc(OCc2nc(-c3ccccc3)oc2C)cc1`, 134 to 136 °C.
The result for `CCCCCCCCC1SC(=S)SC1CCCCCCCCO` (centres undefined) reads 40 to 47 °C; that for `C=CCc1c(-c2cc(=O)c3c(O)c(CC=C)c(O)c(CC=C)c3o2)ccc(OC)c1O`, 122 to 123 °C.
For `Cc1ccc2c(n1)sc1c(=O)n(C)nnc12`, the melting point lay within 169 to 171 °C.
In the case of `COc1ncccc1Cc1cc2cccc(-c3cccc(C(=O)NCCO)c3)c2s1` it was 121 to 122 °C.

A word on the melting point: it is the temperature of the solid-liquid transition.

For the origin of these results see a melting point compilation (Tetko et al.; mined from patent text by program, amines drawn as free bases though some values may be those of a salt).
